One series relates to S. aureus USA300 JE2. The series can be described thus: Determination of the IC (miniaturized agar diffusion assay). It counts as cell-based, Staphylococcus aureus. Particulars: agar diffusion on inoculated TSA, 24 h 37 °C dark; IC from inhibited agar volume. As for the experimental part:
(§1) Instead, a miniaturized assay was developed. Molten TSA, kept below 42 °C, was inoculated with different test strains at an OD600 of 0.00125. Then, 17.5 ml was poured into Petri dishes, resulting in agar layers of ~3.16 mm thickness. After solidification, a cork borer was used to punch wells of 4-mm diameter into the agar. Thirty-five microlitres of purified epifadin in DMSO–PA (2.4 µg, 1.2 µg, 0.6 µg, 0.3 µg, 0.15 µg and 0.075 µg) was pipetted into the wells, and agar plates were incubated for 24 h at 37 °C in the dark. Diameters of the zones of inhibition were measured and the volume containing the inhibitory epifadin concentration was calculated, using the following formula for cylinder volume: Vc=πxr^2xhVc=cylindervolumeVi=πrz2xha−(πrw2xha)Vi=inhibitedvolumerz2=radius(diameter/2)zoneofinhibitionrw2=radius(diameter/2)ofwellha=heightofagar
(§2) The volume of agar showing inhibition of the test strain was then correlated with the included amount of epifadin, and the epifadin concentration necessary to inhibit test strain growth in a 1 ml volume was calculated to yield IC values. If, for example, 2.4 µg of epifadin lead to an inhibited volume of 480 µl, to inhibit a volume of 1 ml, 5 µg epifadin is needed, which corresponds to an IC of 5 μg ml^−1. These calculations were conducted for the lowest amount of epifadin that led to a zone of inhibition to minimize the necessary epifadin amounts and the calculation error due to the gradient within the inhibition zone. As a control, the same assay was used to determine the IC for vancomycin, daptomycin and lugdunin under these conditions.

A further series deals with S. aureus USA300LAC. Described as above. It is filed as cell-based, Staphylococcus aureus. The settings on record: agar diffusion on inoculated TSA, 35 µl in 4-mm wells, 24 h 37 °C dark; IC from inhibited agar volume at lowest active amount. As to the method: as §1, §2
On the technique in general: A growth-free zone around the sample is the usual read-out of agar diffusion tests.

The next series concerns S. aureus USA300 LAC. The series can be described thus: Stability analysis of epifadin (bioactivity by agar diffusion after incubation). It counts as physicochemical, Staphylococcus aureus. The settings on record: 37 °C, pH 7, light, r4-r10 = 0-6 h. As for the experimental part:
Fig. 2 High instability of epifadin under in vivo-like conditions. S. epidermidis IVK83 culture supernatants containing epifadin were precipitated with HCl, freeze-dried and extracted with DMSO. This extract was diluted in TSB, incubated for the indicated time periods with constant shaking under the respective conditions and subsequently tested for activity towards S. aureus USA300 LAC. a, Stability of epifadin compared with other antibacterial agents under standard laboratory conditions (37 °C, pH 7, laboratory light exposure). b, In vivo-like conditions with laboratory light exposure at pH 7 (nasal condition) or pH 5.5 (skin condition) and reduced temperatures; incubation of epifadin under exclusion from light enabled further purification and activity determination. Conditions at pH 7, 37 °C and 0 h were used as reference for 100% stability. Data shown represent the mean ± s.d. of three independent experiments. Source data
The effect of different incubation conditions on the bioactivity of epifadin was analysed by agar diffusion assays on lawns of the sensitive indicator strain S. aureus USA300 LAC. To this end, liquid TSA was inoculated with an overnight culture of USA300 at an OD600 of 0.00125. After solidification of the agar, a cork borer was used to punch wells into the agar with 5 mm diameter. TSB media with 50 mM sodium citrate (pH 5 and 6) or 50 mM tris(hydroxymethyl)aminomethane (pH 8 and 9) were prepared. Epifadin-containing precipitate was dissolved in DMSO (12 mg ml^−1), and insoluble particles were removed by centrifugation. The supernatant was added to the prepared TSB media at a final concentration of 750 µg precipitate per millilitre (37.5 µg in 50 µl). Media were incubated for 6 h at 21 °C, 30 °C or 37 °C with or without laboratory light exposure and constant shaking at 500 rpm in a thermomixer (Eppendorf). As controls, 70 µg ml^−1 (3.5 µg in 50 µl) lugdunin, 24 µg ml^−1 (1.2 µg in 50 µl) gallidermin and 100 µg ml^−1 (5 µg in 50 µl) nisin were used. At different timepoints, 50 µl of each sample was pipetted into the wells of the agar plates. After incubation at 37 °C overnight, zones of inhibition were analysed with ImageJ software (version 1.8.0_112).

Take `CN[C@H](CC(C)C)C(=O)N[C@H]1C(=O)N[C@@H](CC(N)=O)C(=O)N[C@H]2C(=O)N[C@H]3C(=O)N[C@H](C(=O)N[C@H](C(=O)O)c4cc(O)cc(O)c4-c4cc3ccc4O)[C@H](O)c3ccc(c(Cl)c3)Oc3cc2cc(c3O[C@@H]2O[C@H](CO)[C@@H](O)[C@H](O)[C@H]2O[C@H]2C[C@](C)(N)[C@H](O)[C@H](C)O2)Oc2ccc(cc2Cl)[C@H]1O` [Vancomycin]: the figures for the “IC*” value with S. aureus USA300 JE2 and in the series with S. aureus USA300LAC were 3.7 µg/mL and 6.0 µg/mL, respectively.
Consider Gallidermin, for which the “stability (remaining antimicrobial activity, 0 h = 100%)” value in the series on S. aureus USA300 LAC (gallidermin 24 µg/ml in TSB, experiment 1 of 3, after 1 h incubation) came to 98.31%; in the series with S. aureus USA300 LAC (gallidermin 24 µg/ml in TSB, experiment 1 of 3, after 2 h incubation) it was 98.34%; in the series with S. aureus USA300 LAC (gallidermin 24 µg/ml in TSB, experiment 1 of 3, after 3 h incubation), 97.66%; with S. aureus USA300 LAC (gallidermin 24 µg/ml in TSB, experiment 1 of 3, after 4 h incubation) it was 104.98%; with S. aureus USA300 LAC (gallidermin 24 µg/ml in TSB, experiment 1 of 3, after 5 h incubation), 100.66%; in the series with S. aureus USA300 LAC (gallidermin 24 µg/ml in TSB, experiment 1 of 3, after 6 h incubation) it was 98.44%. The “stability (remaining antimicrobial activity, 0 h = 100%)” value was found to be 97.85% in the series with S. aureus USA300 LAC (gallidermin 24 µg/ml in TSB, experiment 2 of 3, after 1 h incubation); 106.35% in the series on S. aureus USA300 LAC (gallidermin 24 µg/ml in TSB, experiment 2 of 3, after 2 h incubation); 110.68% in the series on S. aureus USA300 LAC (gallidermin 24 µg/ml in TSB, experiment 2 of 3, after 3 h incubation); 102.27% in the series on S. aureus USA300 LAC (gallidermin 24 µg/ml in TSB, experiment 2 of 3, after 4 h incubation); 103.29% with S. aureus USA300 LAC (gallidermin 24 µg/ml in TSB, experiment 2 of 3, after 5 h incubation); 108.21% in the series on S. aureus USA300 LAC (gallidermin 24 µg/ml in TSB, experiment 2 of 3, after 6 h incubation). For the same molecule, the “stability (remaining antimicrobial activity, 0 h = 100%)” value with S. aureus USA300 LAC (gallidermin 24 µg/ml in TSB, experiment 3 of 3, after 1 h incubation) came to 100.01%; with S. aureus USA300 LAC (gallidermin 24 µg/ml in TSB, experiment 3 of 3, after 2 h incubation), 96.91%; in the series with S. aureus USA300 LAC (gallidermin 24 µg/ml in TSB, experiment 3 of 3, after 3 h incubation) it was 95.85%; in the series with S. aureus USA300 LAC (gallidermin 24 µg/ml in TSB, experiment 3 of 3, after 4 h incubation), 100.24%; with S. aureus USA300 LAC (gallidermin 24 µg/ml in TSB, experiment 3 of 3, after 5 h incubation) it was 103.69%; with S. aureus USA300 LAC (gallidermin 24 µg/ml in TSB, experiment 3 of 3, after 6 h incubation), 91.59%.
With Nisin, the “stability (remaining antimicrobial activity, 0 h = 100%)” value in the series on S. aureus USA300 LAC (nisin 100 µg/ml in TSB, experiment 1 of 3, after 1 h incubation) stood at 97.92%; in the series on S. aureus USA300 LAC (nisin 100 µg/ml in TSB, experiment 1 of 3, after 2 h incubation), 95.64%; in the series on S. aureus USA300 LAC (nisin 100 µg/ml in TSB, experiment 1 of 3, after 3 h incubation), 93.46%; in the series with S. aureus USA300 LAC (nisin 100 µg/ml in TSB, experiment 1 of 3, after 4 h incubation) it was 95.48%; in the series with S. aureus USA300 LAC (nisin 100 µg/ml in TSB, experiment 1 of 3, after 5 h incubation) it was 97.51%; with S. aureus USA300 LAC (nisin 100 µg/ml in TSB, experiment 1 of 3, after 6 h incubation), 85.14%. In addition, the “stability (remaining antimicrobial activity, 0 h = 100%)” value in the series on S. aureus USA300 LAC (nisin 100 µg/ml in TSB, experiment 2 of 3, after 1 h incubation) is given as 104.00%; in the series with S. aureus USA300 LAC (nisin 100 µg/ml in TSB, experiment 2 of 3, after 2 h incubation), 100.36%; with S. aureus USA300 LAC (nisin 100 µg/ml in TSB, experiment 2 of 3, after 3 h incubation) it was 102.17%; in the series on S. aureus USA300 LAC (nisin 100 µg/ml in TSB, experiment 2 of 3, after 4 h incubation), 101.46%; with S. aureus USA300 LAC (nisin 100 µg/ml in TSB, experiment 2 of 3, after 5 h incubation), 105.85%; in the series with S. aureus USA300 LAC (nisin 100 µg/ml in TSB, experiment 2 of 3, after 6 h incubation) it was 97.13%. The “stability (remaining antimicrobial activity, 0 h = 100%)” value in the series on S. aureus USA300 LAC (nisin 100 µg/ml in TSB, experiment 3 of 3, after 1 h incubation) is recorded as 107.69%; in the series with S. aureus USA300 LAC (nisin 100 µg/ml in TSB, experiment 3 of 3, after 2 h incubation) it was 105.39%; with S. aureus USA300 LAC (nisin 100 µg/ml in TSB, experiment 3 of 3, after 4 h incubation), 113.09%; in the series with S. aureus USA300 LAC (nisin 100 µg/ml in TSB, experiment 3 of 3, after 5 h incubation), 97.70%; in the series on S. aureus USA300 LAC (nisin 100 µg/ml in TSB, experiment 3 of 3, after 6 h incubation) it was 77.36%.
